Results taken from US20020122768A1, “Stable radiopharmaceutical compositions and methods for preparation thereof” (priority 2000, published 2002).

Tests used:
Format in all cases: physicochemical
[1] = Solution stability of ^177Lu-C at −78° C., RCP by radio-HPLC; settings: ^177Lu-C prepared using 2 mg GA, degassed, second stabilizer (20 mg AA, 20 mg DSA, 10 mg 2,3,4-THBA, 10 mg 3,4,5-THBA) added post-labeling
[2] = as above; settings: for RCP (%) t = 0 / RCP (%) t = 3 days / RCP (%) t = 7 days / RCP (%) change: ^177Lu-C prepared using 2 mg GA; for RCP (%) t = 0 / RCP (%) t = 3 days / RCP (%) t = 7 days: degassed, second stabilizer (20 mg AA, 20 mg DSA, 10 mg 2,3,4-THBA, 10 mg 3,4,5-THBA) added post-labeling; for RCP (%) change: second stabilizer added post-labeling, t = 0 to 7 days; for stabilization compared with AA and DSA: ^177Lu-C, second stabilizer
Protocol: The integrity of a radiopharmaceutical is measured by the radiochemical purity (RCP) of the radiolabeled compound using ITLC or more preferably HPLC. The advantage of using HPLC is that radio-impurities caused by radiolytic degradation can be separated from the radiopharmaceutical under optimized chromatographic conditions. […] The radiopharmaceutical compositions of this invention are effective in maintaining the long-term stability of samples that have been frozen, thawed, and re-tested periodically for 7 days.
The initial RCP of a radiopharmaceutical is largely dependent on radiolabeling conditions such as pH, heating temperature and time. Once a radiopharmaceutical is prepared in high yield, the stability of the radiopharmaceutical composition is measured by the` RCP change of the radiopharmaceutical over a certain period of time. For comparison purposes, sodium gentisate or sodium ascorbate was often used as the reference since they have been used in various radiopharmaceutical formulations.
HPLC method 3 used a HP-1100 HPLC system with a UV/visible detector (λ=220 nm), an IN-US radio-detector, and a Zorbax C18 column (4.6 mm×250 mm, 80 Å pore size). The flow rate was 1 mL/min with a gradient mobile phase starting from 90% solvent A (0.025 M ammonium acetate buffer, pH 6.8) and 10% solvent B (acetonitrile) at 0 min to 88% solvent A and 12% solvent B at 18 min, followed by an isocratic wash using 40% of solvent A and 60% solvent B from 19 to 25 min.
The ITLC method used Gelman Sciences silica-gel ITLC paper strips and 1:1 mixture of acetone and saline as eluant. By this method, the radiolabeled compounds migrate to the solvent front while [^90Y]/^177Lu]colloid and [^90Y]/^177Lu]acetate remain at the origin.
(§1) The 0.5 M ammonium acetate buffer (pH 8.0) was first degassed under vacuum for 1-2 min. COMPOUND C and gentisic acid (sodium salt, GA) were dissolved in the degassed buffer to give a concentration of 100 μg/mL for COMPOUND C and 2 mg/mL for GA. The resulting solution was immediately degassed under vacuum for another 1-2 min. To a clean sealed 5 mL vial was added 1.0 mL of the degassed 0.5 M ammonium acetate buffer (pH 8.0) containing 100 μg COMPOUND C and 2 mg GA. The solution was degassed again under vacuum. Upon addition of ˜20 μL of ^177LuCl3 solution (˜20 mCi) in 0.05 N HCl, the reaction mixture was heated at 100° C. for 5 min. After cooling to room temperature, a sample of the resulting solution was analyzed by HPLC (Method 3, injection volume=5 μL) and ITLC. […] To the solution above was added 0.5 mL of sodium ascorbate solution (40 mg/mL in 0.5 M ammonium acetate buffer, pH=7.4). The resulting mixture was then kept in a dry-ice box (−78° C.) for 7 days. Samples were analyzed at t=0, 3 and 7 days.
as §1, with “COMPOUND” for “The 0.5 M ammonium acetate buffer (pH 8.0) was first degassed under vacuum for 1-2 min. COMPOUND”, “1.0 μL” for “1.0 mL”, “of 2,3,4-THBA” for “of sodium ascorbate”, “solution (20” for “solution (40”
COMPOUND C and gentisic acid (sodium salt, GA) were dissolved in the degassed buffer to give a concentration of 100 μg/mL for COMPOUND C and 2 mg/mL for GA. The resulting solution was immediately degassed under vacuum for another 1-2 min. […]

[3] = Solution stability of ^90Y-A at room temperature, RCP by radio-HPLC; settings: for RCP (%) change: ^90Y-A, t = 0 h to last time point
Protocol: The advantage of using HPLC is that radio-impurities caused by radiolytic degradation can be separated from the radiopharmaceutical under optimized chromatographic conditions.
The initial RCP of a radiopharmaceutical is largely dependent on radiolabeling conditions such as pH, heating temperature and time. Once a radiopharmaceutical is prepared in high yield, the stability of the radiopharmaceutical composition is measured by the` RCP change of the radiopharmaceutical over a certain period of time.
Analytical Methods. HPLC method 1 used a HP-1100 HPLC system with a UV/visible detector (λ=220 nm), an IN-US radio-detector, and a Zorbax C18 column (4.6 mm×250 mm, 80 Å pore size).
The ITLC method used Gelman Sciences silica-gel ITLC paper strips and 1:1 mixture of acetone and saline as eluant.
(§2) The reaction mixture was heated at 100° C. for 10 min. A sample of the resulting solution was first diluted 20-fold with 2 mM DTPA solution (pH=5), and was then analyzed by HPLC (Method 1, injection volume=1-2 μL) and ITLC. […] The resulting solution was kept at room temperature for 6 days.
as §2, §2
The reaction mixture was heated at 100° C. for 10 min. A sample of the resulting solution was first diluted 20-fold with 2 mM DTPA solution (pH=5), and was then analyzed by HPLC (Method 1, injection volume 1-2 μL) and ITLC. […] The resulting solution was kept at room temperature for 7 days.
(§3) The reaction mixture was heated at 100° C. for 10 min. A sample of the resulting solution was first diluted 20-fold with 2 mM DTPA solution (pH=5), and was then analyzed by HPLC (Method 1, injection volume=1-2 μL) and ITLC. […] The resulting solution was kept at room temperature for 7 days.
as §3, §3

[4] = ^90Y-A (~20 mCi), 10 mg stabilizer, room temperature
[5] = 10 mg stabilizer, room temperature
[6] = ^90Y-A (~20 mCi), 2 mg stabilizer, room temperature

RCP (%) t = 1 day [1] [%] | RCP (%) t = 0 [2] [%] | RCP (%) t = 3 days [2] [%] | RCP (%) t = 7 days [2] [%] | RCP (%) change [2] [%] | RCP (%) t = 0 h [3, 4] [%] | RCP (%) t = 24 h [3, 4] [%] | RCP (%) t = 72 h [3, 4] [%] | RCP (%) t = 148 h [3, 4] [%] | RCP (%) change [3, 5] [%] | stabilization compared with AA and DSA [2] | RCP (%) t = 0 h [3, 6] [%] | RCP (%) t = 24 h [3, 6] [%] | RCP (%) t = 48 h [3, 6] [%] | RCP (%) t = 120 h [3, 6] [%] | RCP (%) t = 144 h [3, 6] [%] | stabilization compared with GA ([3]; ^90Y-A at room temperature, 2 mg stabilizer) | Compound
97.4 | 97.4 | 95.9 | 93.0 | 4.4 | 92.2 | 89.3 | 82.8 | 80.5 | 11.7 | – | – | – | – | – | – | – | 2,4-disulfonatobenzeneamine [DSA]
96.6 | 97.4 | 96.5 | 95.4 | 2.0 | – | – | – | – | – | better stabilization | – | – | – | – | – | – | O=C(O)c1ccc(O)c(O)c1O [2,3,4-THBA, 2,3,4-trihydroxybenzoic acid]
97.9 | 97.2 | 96.7 | 95.0 | 2.2 | 93.3 | 92.4 | 88 | 79.5 | 13.8 | better stabilization | 95.3 | 89.3 | 80.6 | 74.3 | 73.4 | better stabilizers than GA | O=C(O)c1cc(O)c(O)c(O)c1 [3,4,5-THBA, 3,4,5-trihydroxybenzoic acid]
